Data set [1] deals with CD4+ and CD8+ T cells, T regulatory cells, B cells. The data set can be described thus: Flow cytometry of lymphocyte populations in mATG-treated mice. The class given is in vivo, C57BL/6 mice. As to the method:
(§1) For splenocyte and lymph node cell preparations single-cell suspensions were generated from harvested mouse spleens or inguinal and mesenteric lymph nodes by homogenization between frosted glass slides into PBS containing 2% FCS. For splenocyte preparations, red blood cells were lysed by 1-2 minute incubation with a red blood cell lysis solution (BD Biosciences, San Diego, Calif.). Blood was isolated by retro-orbital bleeding and cell preparations were performed by lysing red blood cells with red blood cell lysing solution (BD Biosciences) for 20-30 minutes. For all tissue preparations, live cells were enumerated using the ViCell automated counter (Beckman Coulter, Fullerton, Calif.). Following isolation, all cell preparations were washed with PBS/2% FCS prior to use in the assays described below.
(§2) For evaluation of cell populations within different tissues, single cell suspensions of the tissues were incubated with fluorochrome-conjugated antibodies that included anti-mouse CD4, CD8, CD25, CD44, CD62L (all antibodies from BD Biosciences or eBioscience, San Diego, Calif.). Intracellular Foxp3 expression analysis was performed according to the anti-Foxp3 manufacturer's protocol (eBiosciences, San Diego, Calif.). Following incubation with the antibodies, cells were washed and analyzed by flow cytometry (FACSCanto, BD Biosciences and FCS Express software, De Novo Software, Los Angeles, Calif.).

Data set [2] deals with circulating and splenic T cells and B cells. The data set can be described thus: Flow cytometry of alemtuzumab-mediated lymphocyte depletion in blood and spleen. Type of data set: in vivo, huCD52 Tg mice. As to the method:
as §1, §2

The subject of data set [3] is allogeneic heart transplant. The data set can be described thus: Murine allogeneic heart transplant model, graft survival. Type of data set: in vivo, mice (C57BL/6 donor, Balb/c recipient). To be noted: treatment alone. On the procedure: (§3) Polyclonal antibody mATG was administered as an intraperitoneal injection of 5 mg/kg every four weeks or as two 20 mg/kg doses given four days apart when in the transplant setting with the first dose given on the day of transplant (day 0).
C57BL/6 and BALB/c mice were obtained from Charles River (Kingston, N.Y. or Raleigh, N.C.) and used in these experiments between 8 and 13 weeks of age. The donor allogenic C57BL/6 mice were first anesthetized with an intraperitoneal injection of Ketamine (Fort Dodge Animal Health/Pfizer, Fort Dodge, Iowa) and Xylazine (Lloyd, Shenandoah, Iowa) and a median sternotomy was performed. […] The ascending aorta and pulmonary artery were then transected, the graft removed from the donor and the heart was stored in ice-cold saline until engraftment. A recipient mouse (Balb/c) was similarly anesthetized and prepped as described above for donor mice, except that the abdominal cavity was opened. […] After hemostasis was confirmed, the abdominal muscle was closed with a running 5-O Vicryl suture (Ethicon, Johnson & Johnson, Somerville, N.J.), and the skin closed with running 5-0 Ethilon suture (Ethicon). Standard post-op pain assessment and management was performed. Grafts were assessed by palpation 5-7 times per week for the first 30 day, and then 3-4 times per week until the end of the study.

The subject of another data set is anti-mATG antibody. The data set can be described thus: Anti-mATG titers in cardiac allograft transplant mice. Type of data set: in vivo. To be noted: seven days following transplant, mice treated with methotrexate and mATG. As to the method:
as §3
The levels of anti-mATG IgG in mouse serum were analyzed by enzyme linked immunosorbent assay (ELISA). […] End-point titers were defined as the […] dilution that averages above an absorbance of 0.100 using Softmax software (Molecular Devices, Sunnyvale, Calif., USA).
C57BL/6 and BALB/c mice were obtained from Charles River (Kingston, N.Y. or Raleigh, N.C.) and used in these experiments between 8 and 13 weeks of age. The donor allogenic C57BL/6 mice were first anesthetized with an intraperitoneal injection of Ketamine (Fort Dodge Animal Health/Pfizer, Fort Dodge, Iowa) and Xylazine (Lloyd, Shenandoah, Iowa) and a median sternotomy was performed. […] The ascending aorta and pulmonary artery were then transected, the graft removed from the donor and the heart was stored in ice-cold saline until engraftment. A recipient mouse (Balb/c) was similarly anesthetized and prepped as described above for donor mice, except that the abdominal cavity was opened. […] Grafts were assessed by palpation 5-7 times per week for the first 30 day, and then 3-4 times per week until the end of the study.

Structures are written as SMILES.

In the case of `CN(Cc1cnc2nc(N)nc(N)c2n1)c1ccc(C(=O)N[C@@H](CCC(=O)O)C(=O)O)cc1` [methotrexate, Methotrexate], the “levels of circulating CD4+ and CD8+ T cells” value in data set [1] (after fifth monthly mATG treatment, mATG alone or with one cycle of methotrexate) is “significantly depleted”. Besides, the “depletion of CD4+, CD8+, T regulatory T cells and total CD19+ B cells” value in data set [1] (methotrexate alone, animals receiving an allogeneic transplant) is reported as “did not deplete”; in data set [1] (normal animals, blood and spleen), “does not deplete”. The “percentage of T regulatory cells in spleen and blood” value in data set [1] (single cycle of methotrexate, after fifth monthly mATG treatment) is “enhanced the ability of mATG to increase the percentage of T regulatory cells”. Besides, the “absolute number of activated follicular and activated transitional 3 B cells” value in data set [1] (spleen, single cycle of methotrexate, around fifth mATG dose) is reported as “no statistically significant decreases”. In addition, in data set [2] (alemtuzumab alone, or with methotrexate 5 mg/kg daily for first three days), the “depletion of circulating T cells by fifth monthly dose of alemtuzumab” value is given as “restored the ability of alemtuzumab to deplete T cells”. For the same compound, the “splenic T cell populations” value in data set [2] (methotrexate-treated animals, one day following fifth alemtuzumab treatment) was “significantly depleted”. Moreover, the “splenic B cell populations, except follicular B cells” value in data set [2] (mice treated with alemtuzumab and methotrexate, after fifth alemtuzumab dose) is recorded as “not significantly depleted”. Further, the “effect on marginal zone B cells with alemtuzumab” value in data set [2] (spleen, two days following last day of methotrexate treatment) is recorded as “may enhance the depletion of marginal zone B cells”. Besides, the “depletion of circulating B cells by fifth monthly dose of alemtuzumab” value in data set [2] (with methotrexate 5 mg/kg daily for first three days) is given as “enhance the depletion of B cells”. For the same compound, the “average extended graft survival” value in data set [3] is 20 days. For the same compound, the “anti-rabbit IgG antibody titers” value with anti-mATG antibody is recorded as “significantly lower”.

These data come from patent publication US11672802B2, “Induction of immune tolerance by using methotrexate” (Genzyme Corporation, priority 2011, dated 2023).
